The values below come from patent US7335770B2, “Triazine compounds and their analogs, compositions, and methods” (Reddy U5 Therapeutics, Inc., priority 2004, dated 2008).

Like-named read-outs stand apart in the source and are kept apart here.

For this experiment, the system named is smooth muscle cells (SMC). Put plainly: anti-proliferation assay (perlecan). The note with it: for activity in anti-proliferation assay (Perlecan), in words: using the same activity scale used in Table 3. In kind it is cell-based. How it is done:
The activity scale used in Table 3 as follows (numbers are inclusive): “+++” represents IC50 of less than about 3 μM; “++” represents IC50 of between about 3 and about 7 μM; and “+” represents IC50 of greater than about 7 μM. In addition, compounds, to include compositions thereof, encompassed within the scope of structures Ia-XXIVa, respectively, or listed in Tables 1A and 1E may be likewise employed in this embodiment and/or aspect of the present invention. Further, any hydrogen atoms that are required for any atom to attain its usual valence in a structure presented in Table 3, whether a carbon atom or a heteroatom, should be inferred if it is not specifically indicated.
In addition to the above compounds, the following compounds and compositions comprising these compounds are active in an anti-proliferation assay (Perlecan). These compounds and compositions comprising these compounds are, among other things, generally useful for treating cardiovascular disorders associated with proliferative activity. Specifically, these compounds include N^2-cycloheptyl-N^4-(3-fluoro-4-methoxyphenyl)-N^6-methyl-N^6-(1-methyl-piperidin-4-yl)-1,3,5-triazine-2,4,6-triamine, and N^2-cycloheptyl-N^4-methyl-N^4-(1-methyl-piperidin-4-yl)-N^6-naphthalen-2-yl-1,3,5-triazine-2,4,6-triamine.
Methods for identifying the activity and screening for one or more of these compounds or molecules that induce synthesis of proteoglycans such as HSPG (heparan sulfate proteoglycan) are taught in U.S. patent application Ser. No. 10/091,357, which is incorporated herein in its entirety. Assays of effects of compounds in vivo are also taught in the incorporated references and are known to those skilled in the art. In general, methods comprise the addition of such compounds to assays and measurement of HSPG synthesis including, but not limited to, the production of syndecans, glypicans and perlecans, for example, syndecans 1, 2 and 4; and glypican-1. Other assays that can be used to determine the activity of the compounds of the present invention include other methods for measuring the induction of perlecan synthesis. For example, in one assay, perlecan is induced in cells by certain inducers, and the response is measured. Compounds of the present invention are then added to a replicate assay and the effect on perlecan induction is determined. Using such methods, compounds are determined that can either inhibit perlecan, elevate induction of perlecan, or that have no effect at all. Those compounds that are effective as therapeutic agents can then be used in animals, humans or patients with cellular proliferation disease aspects, such as vascular-associated diseases or SMC proliferation pathologies.
Another assay for determining compounds having SMC effects comprises adding a composition suspected of affecting SMC proliferation to smooth muscle cells in growth medium or serum-free medium. The change in cell proliferation can be measured by methods known to those skilled in the art, such as incorporation of labeled nucleotides into dividing cells' DNA, and compared to the proliferation of cells which are not treated with the compound. Other measurements include directly determining levels of HSPG synthesis by measuring the amount or change in amount of HSPG such as with ELISA for HSPGs, and compared to the amount of HSPG synthesis in untreated cells. Other indirect or direct measurement are contemplated by the present invention and are known to those skilled in the art. For example, such methods include, but are not limited to, measurement of RNA levels, RT-PCR, Northern blotting, Western blotting promoter-based assays to identify compounds that affect one or more proteoglycans and assays for proteoglycan biological activity shown by recombinant proteins, partially purified proteins, or lysates from cells expressing proteoglycans in the presence or absence of compounds of interest.

Setting [1] is: anti-proliferation assay (perlecan), class of IC50, read-out: Activity (note 1).
The mark [2] stands for this setting: anti-proliferation assay (perlecan), some cells print no unit, read-out: Avg IC-50.

For the compound `COc1ccc(Nc2nc(NC3CCCCCC3)nc(OC(C)C)n2)cc1Cl` [N-(3-Chloro-4-methoxy-phenyl)-N′-cycloheptyl-6-isopropoxy-[1,3,5]triazine-2,4-diamine], the “activity in anti-proliferation assay (Perlecan), in words” value (shortened to “activity in anti-proliferation assay”) was “high activity”. For the compound `COc1ccc(Nc2nc(NCCCCCNC(=O)CCCCC3SCC4NC(=O)NC43)nc(NC3CCCCCC3)n2)cc1Cl` (centres unmarked) [drawing 594, 5-(2-Oxo-hexahydro-thieno[3,4-d]imi-dazol-4-yl)-pentanoic acid {5-[4-(3-chloro-4-methoxy-phenyl-amino)-6-cyclo-heptylamino-[1,3,5]triazin-2-yl-amino]-pentyl}-amide], the IC50 reads like this: (read-out: Activity (note 1)) under 3000 nM; (read-out: Avg IC-50) 2200 nM.

For the compound `COc1ccc(Nc2nc(NC3CCCCCC3)nc(OCC3CCCO3)n2)cc1Cl` (centres unmarked) [N-(3-Chloro-4-methoxy-phenyl)-N′-cycloheptyl-6-(tetrahydro-furan-2-ylmethoxy)-[1,3,5]triazine-2,4-diamine], the “activity in anti-proliferation assay” value was “high activity”. As for `COc1ccc(Nc2nc(NC3CCCCCC3)nc(Oc3ccccc3C#CC(C)(C)O)n2)cc1Cl` [drawing 580, 4-{2-[4-(3-Chloro-4-methoxy-phenyl-amino)-6-cyclo-heptylamino-[1,3,5]triazin-2-yl-oxy]-phenyl}-2-methyl-but-3-yn-2-ol], the IC50 runs as follows: under setting [1], under 3000 nM; under setting [2], 2800 nM.

Regarding `CCN1CCCC1CNc1nc(Nc2ccc(OC)c(F)c2)nc(N2CCN(CC(=O)N3CCCC3)CC2)n1` (centres unmarked) [2-{4-[4-[(1-Ethyl-pyrrolidin-2-ylmethyl)-amino]-6-(3-fluoro-4-methoxy-phenylamino)-[1,3,5]triazin-2-yl]-piperazin-1-yl}-1-pyrrolidin-1-yl-ethanone], the “activity in anti-proliferation assay” value is “high activity”. On the same count and under the same terms, with `CCN1CCCC1CNc1nc(Nc2ccc(OCc3ccccc3)c(Cl)c2)nc(NC2CCCCCC2)n1` (centres unmarked) [N-(4-Benzyloxy-3-chloro-phenyl)-N′-cycloheptyl-N″-(1-ethyl-pyrrolidin-2-ylmethyl)-[1,3,5]triazine-2,4,6-triamine] the entry was “high activity”. Consider `COc1ccc(Nc2nc(NC3CCCCCC3)nc(NC3CCN(C(=O)CCCCC4SCC5NC(=O)NC54)CC3)n2)cc1Cl` (centres unmarked) [drawing 595], for which the IC50 (read-out: Activity (note 1)) was under 3000 nM and the IC50 (read-out: Avg IC-50) was 710 nM. `CN1CCC(N(C)c2nc(Nc3ccc4ccccc4c3)nc(NC3CCCCCC3)n2)CC1` [N^2-cycloheptyl-N^4-methyl-N^4-(1-methyl-piperidin-4-yl)-N^6-naphthalen-2-yl-1,3,5-triazine-2,4,6-triamine]: the “activity in anti-proliferation assay” value is “high activity”. As for `COc1ccc(Nc2nc(NC3CCCCCC3)nc(Sc3ccc(F)cc3)n2)cc1Cl` [N-(3-Chloro-4-methoxy-phenyl)-N′-cycloheptyl-6-(4-fluoro-phenylsulfanyl)-[1,3,5]triazine-2,4-diamine], the “activity in anti-proliferation assay” value is listed as “high activity”. For `CCOc1nc(Nc2ccc(OC)c(F)c2)nc(NC2CCCCCC2)n1` [N-Cycloheptyl-6-ethoxy-N′-(3-fluoro-4-methoxy-phenyl)-[1,3,5]triazine-2,4-diamine], the “activity in anti-proliferation assay” value is “high activity”. Consider `COc1ccc(Nc2nc(NC3CCCCCC3)nc(Oc3ccc(/C=N\O)cc3)n2)cc1Cl` [drawing 583, 4-[4-(3-Chloro-4-methoxy-phenyl-amino)-6-cyclo-heptylamino-[1,3,5]triazin-2-yl-oxy]-benzaldehyde oxime], for which the IC50 is under 3000 nM under setting [1] and 720 nM under setting [2]. Take `CCN1CCCC1CNc1nc(Cl)nc(Nc2ccc(OC)c(F)c2)n1` (centres unmarked) [6-Chloro-N-(1-ethyl-pyrrolidin-2-yl-methyl)-N′-(3-fluoro-4-meth-oxy-phenyl)-[1,3,5]triazine-2,4-di-amine]: the IC50 by setting is: under setting [1], 3000 to 7000 nM; under setting [2], 6500 nM.

In the case of `COc1ccc(Nc2nc(NC3CCCCCC3)nc(Oc3ccc(C=O)cc3)n2)cc1Cl` [4-[4-(3-Chloro-4-methoxy-phenylamino)-6-cycloheptylamino-[1,3,5]triazin-2-yloxy]-benzaldehyde], the “activity in anti-proliferation assay” value is “high activity”. Regarding `CCN1CCCC1CNc1nc(NC2CCCCCC2)nc(NC2CCC(O)CC2)n1` (centres unmarked) [drawing 599, 4-{4-Cycloheptylamino-6-[(1-eth-yl-pyrrolidin-2-ylmethyl)-amino]-[1,3,5]triazin-2-ylamino}-cyclo-hexanol], the IC50 was 3000 to 7000 nM under setting [1] and 4100 nM under setting [2].

For the compound `COc1ccc(Nc2nc(NCCCCCNC(=O)CCCCC3SCC4NC(=O)NC43)nc(NC3CCCCCC3)n2)cc1Cl` (centres unmarked) [5-(2-Oxo-hexahydro-thieno[3,4-d]imidazol-4-yl)-pentanoic acid {5-[4-(3-chloro-4-methoxy-phenylamino)-6-cycloheptylamino-[1,3,5]triazin-2-ylamino]-pentyl}-amide], the “activity in anti-proliferation assay” value is “high activity”. For the compound `COc1ccc(Nc2nc(NC3CCCCCC3)nc(Oc3ccc(C(C)=O)cc3)n2)cc1Cl` [1-{4-[4-(3-Chloro-4-methoxy-phenylamino)-6-cycloheptylamino-[1,3,5]triazin-2-yloxy]-phenyl}-ethanone], the “activity in anti-proliferation assay” value is “high activity”. As for `CCN1CCCC1CNc1nc(Nc2ccc(OC)c(F)c2)nc(N2CCN(CC(=O)N3CCCC3)CC2)n1.Cl.Cl` (centres unmarked), the “activity in anti-proliferation assay” value was “high activity”. Take `COc1ccc(Nc2nc(NC3CCCCCC3)nc(Oc3cccc(C)n3)n2)cc1Cl` [N-(3-Chloro-4-methoxy-phenyl)-N′-cycloheptyl-6-(6-methyl-pyridin-2-yloxy)-[1,3,5]triazine-2,4-diamine]: the “activity in anti-proliferation assay” value is “high activity”. As to `CN1CCC(N(C)c2nc(Nc3cccc([N+](=O)[O-])c3)nc(NC3CCCCCC3)n2)CC1` [drawing 593, N-Cycloheptyl-N′-methyl-N′-(1-meth-yl-piperidin-4-yl)-N″-(3-ni-tro-phenyl)-[1,3,5]triazine-2,4,6-tri-amine], the IC50 runs as follows: under setting [1], under 3000 nM; under setting [2], 910 nM. As to `CCN1CCCC1CNc1nc(Nc2ccc(C)c(F)c2)nc(NC2CCCCCC2)n1` (centres unmarked) [drawing 591, N-Cycloheptyl-N′-(1-ethyl-pyr-rolidin-2-ylmethyl)-N″-(3-fluoro--4-methyl-phenyl)-[1,3,5]tri-azine-2,4,6-triamine], the IC50 reads like this: under setting [1], under 3000 nM; under setting [2], 2780 nM. For the compound `COc1ccc(Nc2nc(NC3CCCCCC3)nc(Oc3ccc(I)cc3)n2)cc1Cl` [N-(3-Chloro-4-methoxy-phenyl)-N′-cycloheptyl-6-(4-iodo-phenoxy)-[1,3,5]triazine-2,4-diamine], the “activity in anti-proliferation assay” value was “high activity”.

In the case of `Cc1ccc(Nc2nc(NC3CCCCCC3)nc(N(C)C3CCN(C)CC3)n2)cc1F` [drawing 592, N-Cycloheptyl-N′-(3-fluoro-4-meth-yl-phenyl)-N″-methyl-N″-(1-meth-yl-piperidin-4-yl)-[1,3,5]tri-azine-2,4,6-triamine], the IC50 runs as follows: under setting [1], under 3000 nM; under setting [2], 2250 nM. For the compound `COc1ccc(Nc2nc(NC3CCCCCC3)nc(Sc3ccccc3OC)n2)cc1Cl` [N-(3-Chloro-4-methoxy-phenyl)-N′-cycloheptyl-6-(2-methoxy-phenylsulfanyl)-[1,3,5]triazine-2,4-diamine], the “activity in anti-proliferation assay” value is reported as “high activity”. For the compound `COc1ccc(Nc2nc(NC3CCCCCC3)nc(-c3ccc(O)cc3O)n2)cc1Cl` [4-[4-(3-Chloro-4-methoxy-phenylamino)-6-cycloheptylamino-[1,3,5]triazin-2-yl]-benzene-1,3-diol], the “activity in anti-proliferation assay” value is given as “high activity”. Consider `COc1ccc(Nc2nc(NC3CCCCCC3)nc(OC3CCN(C)CC3)n2)cc1Cl` [drawing 576, N-(3-Chloro-4-methoxy-phenyl)-N′-cyclo-heptyl-6-(1-methyl-piper-idin-4-yloxy)-[1,3,5]triazine-2,4-di-amine], for which the IC50 is 3000 to 7000 nM under setting [1] and 5700 nM under setting [2].
